Laboratory results: ChEMBL document CHEMBL2396557, “Functional consequences of retro-inverso isomerization of a miniature protein inhibitor of the p53-MDM2 interaction” (Bioorg Med Chem, 2013)
Activity calls are given as the source filed them. The calls are words filed in the database; no cut-off is given here.

Experiments:
[1] = target: T1, E3 ubiquitin-protein ligase Mdm2 (Homo sapiens, UniProt Q00987); assay: Binding affinity to MDM2 (25 to 109 amino acids) (unknown origin) at 100 uM after 30 mins by surface plasmon resosnance analysis
Target sequence in this assay (Q00987 whole entry, looked up, the tested form may be a part): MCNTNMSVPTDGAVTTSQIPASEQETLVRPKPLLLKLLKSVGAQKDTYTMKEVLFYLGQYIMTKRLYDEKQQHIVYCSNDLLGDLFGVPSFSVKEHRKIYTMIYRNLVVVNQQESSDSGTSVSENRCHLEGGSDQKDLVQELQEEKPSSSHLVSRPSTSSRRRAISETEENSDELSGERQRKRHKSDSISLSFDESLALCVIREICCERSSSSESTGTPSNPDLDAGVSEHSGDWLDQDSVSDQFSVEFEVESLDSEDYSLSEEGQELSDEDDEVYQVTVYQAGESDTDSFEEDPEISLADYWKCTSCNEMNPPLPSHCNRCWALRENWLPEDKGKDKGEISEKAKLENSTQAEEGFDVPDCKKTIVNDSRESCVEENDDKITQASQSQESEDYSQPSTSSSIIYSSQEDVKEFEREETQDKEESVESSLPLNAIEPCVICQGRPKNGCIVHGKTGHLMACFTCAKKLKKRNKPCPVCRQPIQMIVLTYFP

[2] = target: T1, E3 ubiquitin-protein ligase Mdm2; assay: Binding affinity to MDM2 (25 to 109 amino acids) (unknown origin) after 30 mins by surface plasmon resosnance analysis
Target sequence in this assay (Q00987 whole entry, the tested form may be a part): as the sequence (Q00987 whole entry, looked up, the tested form may be a part) above

Activity [1]	Kd [2] [µM]	Compound
inactive	–	CC(C)C[C@@H]1NC(=O)[C@@H]2CSSC[C@@H](C(=O)O)NC(=O)[C@H](CC(N)=O)NC(=O)[C@H](CSSC[C@H](NC(=O)[C@H](CC(C)C)NC(=O)[C@H](CCC(N)=O)NC(=O)[C@@H](N)Cc3cnc[nH]3)C(=O)N[C@@H](CCCNC(=N)N)C(=O)N[C@@H](Cc3c[nH]c4ccccc34)C(=O)N[C@@H](Cc3ccc(O)cc3)C(=O)N2)NC(=O)[C@H](CCCCN)NC(=O)[C@H](C)NC(=O)[C@@H]2CCCN2C(=O)[C@H](CCC(=O)O)NC(=O)[C@H]([C@@H](C)O)NC(=O)[C@H](Cc2ccccc2)NC1=O
–	18.1	CC(C)C[C@@H](NC(=O)[C@@H](CCC(N)=O)NC(=O)[C@H](N)Cc1cnc[nH]1)C(=O)N[C@@H]1CSSC[C@H]2NC(=O)[C@@H](CCCCN)NC(=O)[C@@H](C)NC(=O)[C@H]3CCCN3C(=O)[C@@H](CCC(=O)O)NC(=O)[C@@H]([C@H](C)O)NC(=O)[C@@H](Cc3ccccc3)NC(=O)[C@@H](CC(C)C)NC(=O)[C@@H](CSSC[C@H](C(=O)O)NC(=O)[C@@H](CC(N)=O)NC2=O)NC(=O)[C@@H](Cc2ccc(O)cc2)NC(=O)[C@@H](Cc2c[nH]c3ccccc23)NC(=O)[C@@H](CCCNC(=N)N)NC1=O
